Active and inactive are the calls of the source.
Assays:
[1] = LGR2 antagonists, dose response, cell-based, HEK293, CRE-luciferase reporter, cherry pick, set 2 (AID 743343); format: functional;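 further: transfected cells were stimulated with diluted bursicon conditioned medium after compound addition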
[2] = Luminescence Cell-Based Dose Confirmation HTS to Identify Inhibitors of Platelet Dense Granule Release. [Related pubchem assays: 1663 (Primary HTS), 1678 (Summary of Project)]; format: functional
[3] = HepG2 cell cytotoxicity, dose response, cytotoxicity control for Shn3 inhibitor project, CellTiter-Glo, cherry-picked (AID 624134); format: functional, cell-based
[4] = A549 cell cytotoxicity, dose response, cytotoxicity control, plate reader, cherry-pick, antagonist series (AID 743412); format: functional, cell-based
[5] = MC4R antagonists, dose response, counter-screen for LGR2 antagonist project, cell-based, plate reader, cherry pick (AID 743444); format: functional;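 further: transfected HEK 293 cells stimulated with alpha-MSH peptide; potency of inhibitors of the alpha-MSH evoked signal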
[6] = HepG2 cell cytotoxicity, dose response, cytotoxicity control, plate reader, cherry-pick, antagonist series (AID 743416); format: functional, cell-based
[7] = molecular target: Paired box protein Pax-8 (Homo sapiens, UniProt Q06710); experiment: inhibitors of PAX8-driven TPO luciferase reporter, dose response, RMG-I cells, cherry-pick (AID 687027); format: functional, cell-based;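 further: luciferase reporter driven by Pax8 target thyroperoxidase promoter measured by SteadyGlo luminescence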
Paired box protein Pax-8, sequence (Q06710 whole entry): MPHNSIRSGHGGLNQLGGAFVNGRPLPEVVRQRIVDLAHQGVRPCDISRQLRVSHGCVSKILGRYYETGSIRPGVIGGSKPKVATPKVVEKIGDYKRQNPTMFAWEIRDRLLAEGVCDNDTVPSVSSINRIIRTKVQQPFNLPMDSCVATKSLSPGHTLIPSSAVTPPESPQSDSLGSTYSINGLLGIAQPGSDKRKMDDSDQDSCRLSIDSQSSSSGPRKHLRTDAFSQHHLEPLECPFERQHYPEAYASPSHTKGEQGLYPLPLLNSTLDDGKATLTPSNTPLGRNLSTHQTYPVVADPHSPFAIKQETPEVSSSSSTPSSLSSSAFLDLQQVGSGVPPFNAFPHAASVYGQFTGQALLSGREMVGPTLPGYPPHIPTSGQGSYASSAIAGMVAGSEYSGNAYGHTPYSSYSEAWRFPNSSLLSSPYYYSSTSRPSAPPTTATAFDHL

[8] = cytotoxicity in HEK-293T NF-kB-Luc cells, dose response, cytotoxicity control for B/T-cell NF-kB inhibitor project, cell-based, uHTS hits (AID 489019); format: functional;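 further: IC50 reflects cytotoxicity as loss of cell viability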
[9] = Shn3 3'UTR reporter inhibitors, dose response, cell-based, Clone20 osteoblasts, firefly luciferase, cherry-picked (AID 624132); format: functional;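 further: firefly luciferase luminescence from reporter carrying the Shn3 3'UTR in osteoblasts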
[10] = molecular target: Luciferin 4-monooxygenase (Photinus pyralis, UniProt P08659); experiment: firefly luciferase enzyme inhibitors, dose response, biochemical, luminescence (AID 1891)
Luciferin 4-monooxygenase, sequence (P08659 whole entry): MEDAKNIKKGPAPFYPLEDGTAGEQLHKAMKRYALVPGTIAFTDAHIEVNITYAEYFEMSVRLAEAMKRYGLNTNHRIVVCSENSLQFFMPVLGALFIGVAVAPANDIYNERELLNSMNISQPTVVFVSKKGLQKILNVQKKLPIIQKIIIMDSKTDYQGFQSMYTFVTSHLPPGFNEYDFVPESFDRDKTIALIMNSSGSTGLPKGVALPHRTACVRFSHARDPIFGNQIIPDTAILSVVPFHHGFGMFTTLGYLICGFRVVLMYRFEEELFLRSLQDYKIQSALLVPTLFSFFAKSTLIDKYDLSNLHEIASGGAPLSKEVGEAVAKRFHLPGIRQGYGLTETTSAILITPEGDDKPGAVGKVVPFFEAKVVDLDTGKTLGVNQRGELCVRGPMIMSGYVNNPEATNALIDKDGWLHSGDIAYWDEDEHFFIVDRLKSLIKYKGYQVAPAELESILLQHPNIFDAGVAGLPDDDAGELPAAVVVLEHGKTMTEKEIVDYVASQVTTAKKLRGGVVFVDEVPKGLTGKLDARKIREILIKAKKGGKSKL

[11] = tested on: Jurkat; experiment: antigen receptor-induced NF-kB inhibitors, dose response, Jurkat, luciferase reporter, luminescence, B- and T-cell (AID 489004); format: functional, cell-based; details: Homo sapiens;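 further: NF-kB luciferase reporter Jurkat cells stimulated with PMA plus ionomycin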
[12] = HEK293 cell cytotoxicity, dose response, cytotoxicity control, plate reader, cherry-picked samples (AID 743446); format: functional, cell-based
[13] = non-specific cell cytotoxicity, dose response, cytotoxicity control for PAX8 inhibitor project, plate reader, dry powder samples (AID 743021); format: functional, cell-based
[14] = tested on: Vero; experiment: cells; format: functional, cell-based; details: Chlorocebus sabaeus
[15] = molecular target: ATP-dependent molecular chaperone HSP82 (Candida albicans (strain WO-1) (Yeast), UniProt C4YTQ8); experiment: loss of DOC-induced GRE-beta-galactosidase reporter signal, dose response, Hsp90 inhibitor project, S. cerevisiae, luminescence (AID 2400); format: functional, cell-based;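 further: beta-galactosidase luminescence from glucocorticoid response element reporter as proxy for Hsp90 function; inhibitor potency where signal loss means Hsp90 inhibition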
ATP-dependent molecular chaperone HSP82, sequence (C4YTQ8 whole entry): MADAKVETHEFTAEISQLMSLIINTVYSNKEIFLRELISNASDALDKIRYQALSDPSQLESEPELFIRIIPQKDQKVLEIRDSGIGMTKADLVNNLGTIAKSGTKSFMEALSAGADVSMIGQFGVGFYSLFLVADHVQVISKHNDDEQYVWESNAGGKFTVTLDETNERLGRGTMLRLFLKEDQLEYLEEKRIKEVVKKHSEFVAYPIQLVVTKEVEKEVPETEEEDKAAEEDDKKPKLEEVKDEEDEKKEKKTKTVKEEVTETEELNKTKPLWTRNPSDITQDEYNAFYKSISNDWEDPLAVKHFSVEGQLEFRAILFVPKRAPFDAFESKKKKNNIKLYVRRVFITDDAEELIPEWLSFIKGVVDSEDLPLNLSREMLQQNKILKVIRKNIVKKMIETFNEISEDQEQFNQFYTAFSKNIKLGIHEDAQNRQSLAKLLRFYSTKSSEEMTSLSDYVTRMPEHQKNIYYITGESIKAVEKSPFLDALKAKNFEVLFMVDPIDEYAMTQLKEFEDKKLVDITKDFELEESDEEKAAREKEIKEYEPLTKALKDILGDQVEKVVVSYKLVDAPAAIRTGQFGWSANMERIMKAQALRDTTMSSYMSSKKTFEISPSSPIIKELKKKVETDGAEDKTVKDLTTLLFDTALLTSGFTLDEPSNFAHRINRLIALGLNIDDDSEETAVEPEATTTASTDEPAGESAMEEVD

[16] = NIH-3T3 fibroblast cytotoxicity, dose response, cytotoxicity control, cell-based, fluorescence, Alamar Blue, secondary assay (AID 2327); format: functional;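 further: NIH-3T3 mouse fibroblasts cultured with fluconazole at 8 µg/mL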
[17] = C. albicans growth with fluconazole, confirmation, fluorescence, retest (AID 2467); format: functional, cell-based
[18] = molecular target: Serine/threonine-protein phosphatase (Candida dubliniensis (strain CD36 / CBS 7987 / NCPF 3949 / NRRLY-17841) (Yeast), UniProt B9W6M3); experiment: calcineurin pathway inhibitors in yeast reporter, dose response, S. cerevisiae, CDRE-lacZ, luminescence, secondary (AID 2388); format: functional, cell-based;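 further: yeast reporter cells carrying a calcineurin-responsive lacZ construct stimulated with calcium chloride; luminescent beta-galactosidase reporter signal in whole cells rather than isolated phosphatase activity; potency for inhibition where a drop in reporter signal means calcineurin blockade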
Serine/threonine-protein phosphatase, sequence (B9W6M3 whole entry): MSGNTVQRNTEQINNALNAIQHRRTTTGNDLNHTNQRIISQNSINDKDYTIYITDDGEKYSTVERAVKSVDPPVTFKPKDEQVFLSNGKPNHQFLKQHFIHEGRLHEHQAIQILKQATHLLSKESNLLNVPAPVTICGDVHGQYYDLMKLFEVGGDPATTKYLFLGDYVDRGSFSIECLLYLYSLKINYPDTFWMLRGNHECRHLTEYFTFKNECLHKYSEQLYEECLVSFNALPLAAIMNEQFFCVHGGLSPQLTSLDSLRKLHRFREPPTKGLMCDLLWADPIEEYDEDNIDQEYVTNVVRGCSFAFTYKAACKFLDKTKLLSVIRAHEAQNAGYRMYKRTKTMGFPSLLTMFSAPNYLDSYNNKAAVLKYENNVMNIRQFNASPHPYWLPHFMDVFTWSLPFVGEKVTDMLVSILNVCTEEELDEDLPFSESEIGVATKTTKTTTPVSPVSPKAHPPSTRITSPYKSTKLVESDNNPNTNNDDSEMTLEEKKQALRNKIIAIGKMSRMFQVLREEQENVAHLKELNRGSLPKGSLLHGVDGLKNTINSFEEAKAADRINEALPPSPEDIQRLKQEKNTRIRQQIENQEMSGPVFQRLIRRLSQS

[19] = molecular target: T1, Nuclear receptor subfamily 0 group B member 1 (Homo sapiens, UniProt P51843); experiment: Luminescence-based cell-based high throughput dose response assay for inhibitors of the orphan nuclear receptor subfamily 0, group B, member 1 (DAX1; NR0B1). [Related pubchem assays (depositor defined):AID504766, AID504790]; format: functional
T1 sequence (P51843 whole entry): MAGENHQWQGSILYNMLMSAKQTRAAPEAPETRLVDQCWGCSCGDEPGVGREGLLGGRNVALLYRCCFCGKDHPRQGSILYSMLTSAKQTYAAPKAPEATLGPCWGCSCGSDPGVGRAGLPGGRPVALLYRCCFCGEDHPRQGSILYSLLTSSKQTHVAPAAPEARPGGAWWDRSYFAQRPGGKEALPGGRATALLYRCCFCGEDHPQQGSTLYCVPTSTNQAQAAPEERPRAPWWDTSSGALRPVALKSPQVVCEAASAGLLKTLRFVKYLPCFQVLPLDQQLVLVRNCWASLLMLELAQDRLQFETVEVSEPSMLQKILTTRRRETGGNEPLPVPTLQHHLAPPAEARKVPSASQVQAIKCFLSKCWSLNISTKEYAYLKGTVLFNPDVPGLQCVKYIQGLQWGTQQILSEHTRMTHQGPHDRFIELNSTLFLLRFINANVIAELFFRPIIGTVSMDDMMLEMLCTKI

[20] = tested on: HEK293; experiment: cells; format: functional, cell-based; details: Homo sapiens
[21] = molecular target: T2, Microphthalmia-associated transcription factor (Homo sapiens, UniProt O75030); experiment: TRPM1 promoter luciferase signal decrease, dose response, MITF inhibitor project, cell-based, SK-MEL-5, cherry-picked, set 3 (AID 493073); format: functional
T2 sequence (O75030 whole entry): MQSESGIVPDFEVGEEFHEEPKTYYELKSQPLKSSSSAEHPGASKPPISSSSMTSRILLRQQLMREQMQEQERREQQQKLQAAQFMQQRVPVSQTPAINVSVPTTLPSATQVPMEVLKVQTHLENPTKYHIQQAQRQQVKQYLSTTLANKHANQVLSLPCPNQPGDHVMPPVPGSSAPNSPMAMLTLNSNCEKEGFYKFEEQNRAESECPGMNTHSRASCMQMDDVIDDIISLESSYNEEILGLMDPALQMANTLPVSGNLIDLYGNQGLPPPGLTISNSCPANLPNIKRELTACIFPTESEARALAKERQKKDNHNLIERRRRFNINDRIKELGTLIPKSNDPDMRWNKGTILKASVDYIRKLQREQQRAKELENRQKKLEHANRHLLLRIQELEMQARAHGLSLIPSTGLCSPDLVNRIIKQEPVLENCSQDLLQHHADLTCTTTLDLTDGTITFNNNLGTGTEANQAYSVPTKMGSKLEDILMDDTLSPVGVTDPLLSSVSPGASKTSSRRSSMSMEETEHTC

[22] = tested on: A-375; experiment: MITF: Counter assay: A375 proliferation Measured in Cell-Based System Using Plate Reader - 2084-03_Inhibitor_Dose_DryPowder_Activity. [Related pubchem assays (depositor defined):AID488944]; format: functional; details: Homo sapiens
[23] = molecular target: T3, Endoribonuclease toxin MazF (Escherichia coli K-12, UniProt P0AE70); experiment: MazF toxin RNase activators, dose response, biochemical, fluorescence, single-stranded RNA substrate, uHTS hits (AID 588481); format: functional
T3 sequence (P0AE70 whole entry): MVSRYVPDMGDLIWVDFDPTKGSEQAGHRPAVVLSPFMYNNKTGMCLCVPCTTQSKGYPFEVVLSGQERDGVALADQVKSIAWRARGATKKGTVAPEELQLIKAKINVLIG

[24] = tested on: A-375; experiment: A375 melanoma cell viability reduction, dose response, counter-screen for MITF modulator project, cherry-pick samples, set 2 (AID 540335); format: functional, cell-based; details: Homo sapiens
[25] = molecular target: T3, Endoribonuclease toxin MazF; experiment: fluorescent RNA oligo signal without MazF, dose response, counter-screen for MazEF activator project, biochemical, fluorescence, single-stranded RNase substrate (AID 588502); format: functional
[26] = molecular target: T4, Bcl-2-related protein A1 (Mus musculus, UniProt Q07440); format: functional;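 further: confirmatory dose–response counterscreen on Bfl-1, used to check hits from a UBC13 polyubiquitin inhibitor campaign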
T4 sequence (Q07440 whole entry): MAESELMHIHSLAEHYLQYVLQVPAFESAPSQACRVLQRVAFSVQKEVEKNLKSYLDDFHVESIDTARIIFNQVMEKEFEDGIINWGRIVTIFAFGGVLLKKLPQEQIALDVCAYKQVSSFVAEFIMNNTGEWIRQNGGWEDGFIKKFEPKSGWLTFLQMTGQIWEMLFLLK

[27] = molecular target: T5, Ubiquitin-conjugating enzyme E2 N (Homo sapiens, UniProt P61088); format: functional
T5 sequence (P61088 whole entry): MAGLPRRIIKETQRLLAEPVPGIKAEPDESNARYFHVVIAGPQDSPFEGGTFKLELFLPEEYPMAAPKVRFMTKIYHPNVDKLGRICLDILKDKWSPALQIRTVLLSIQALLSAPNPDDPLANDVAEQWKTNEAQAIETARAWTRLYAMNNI

[28] = molecular target: T5, Ubiquitin-conjugating enzyme E2 N; format: functional; remark: listed apart in the source
[29] = molecular target: Beta-galactosidase (Escherichia coli, UniProt Q8VNN2); experiment: PubChem AID 485352; format: functional
Beta-galactosidase, sequence (Q8VNN2 whole entry): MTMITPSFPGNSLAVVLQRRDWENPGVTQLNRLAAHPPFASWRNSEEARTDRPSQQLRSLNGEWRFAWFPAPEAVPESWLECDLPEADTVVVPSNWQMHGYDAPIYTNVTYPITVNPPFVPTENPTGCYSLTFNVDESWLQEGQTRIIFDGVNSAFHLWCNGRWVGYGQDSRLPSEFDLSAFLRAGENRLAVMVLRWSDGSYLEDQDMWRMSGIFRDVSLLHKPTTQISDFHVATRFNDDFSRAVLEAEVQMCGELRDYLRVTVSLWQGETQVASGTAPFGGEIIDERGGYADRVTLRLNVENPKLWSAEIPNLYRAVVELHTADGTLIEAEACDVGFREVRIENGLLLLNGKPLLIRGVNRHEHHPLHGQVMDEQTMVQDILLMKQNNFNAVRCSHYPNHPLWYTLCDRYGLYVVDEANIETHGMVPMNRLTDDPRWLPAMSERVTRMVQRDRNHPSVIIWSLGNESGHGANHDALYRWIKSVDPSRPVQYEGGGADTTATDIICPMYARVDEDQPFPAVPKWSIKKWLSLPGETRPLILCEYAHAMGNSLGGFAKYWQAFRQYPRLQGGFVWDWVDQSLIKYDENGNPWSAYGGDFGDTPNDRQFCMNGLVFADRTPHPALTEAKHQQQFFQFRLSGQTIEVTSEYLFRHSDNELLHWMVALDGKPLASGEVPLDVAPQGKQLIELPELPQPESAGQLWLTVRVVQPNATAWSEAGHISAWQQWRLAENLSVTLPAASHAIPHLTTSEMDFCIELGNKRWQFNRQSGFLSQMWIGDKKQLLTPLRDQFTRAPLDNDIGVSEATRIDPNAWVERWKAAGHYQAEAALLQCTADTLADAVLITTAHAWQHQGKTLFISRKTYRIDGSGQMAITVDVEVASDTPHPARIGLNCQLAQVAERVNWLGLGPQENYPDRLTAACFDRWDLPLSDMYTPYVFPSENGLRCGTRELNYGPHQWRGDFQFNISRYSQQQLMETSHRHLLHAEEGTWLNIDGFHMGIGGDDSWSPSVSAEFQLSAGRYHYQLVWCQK

[30] = molecular target: Type-1 angiotensin II receptor (Homo sapiens, UniProt P30556); experiment: AT1 receptor antagonists, dose response, selectivity assay for APJ receptor antagonist project, cell-based, uHTS hits (AID 463214); format: functional;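 further: antagonist potency against angiotensin II stimulated AT1 response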
Type-1 angiotensin II receptor, sequence (P30556 whole entry): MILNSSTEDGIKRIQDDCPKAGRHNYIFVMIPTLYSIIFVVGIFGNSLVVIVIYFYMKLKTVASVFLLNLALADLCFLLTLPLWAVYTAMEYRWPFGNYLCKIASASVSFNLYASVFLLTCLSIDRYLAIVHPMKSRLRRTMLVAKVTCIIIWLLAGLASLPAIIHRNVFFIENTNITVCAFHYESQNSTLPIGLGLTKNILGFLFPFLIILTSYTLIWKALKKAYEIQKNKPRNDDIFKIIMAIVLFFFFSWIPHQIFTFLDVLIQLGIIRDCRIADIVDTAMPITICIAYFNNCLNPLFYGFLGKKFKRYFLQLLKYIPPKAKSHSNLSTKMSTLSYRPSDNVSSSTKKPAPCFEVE

[31] = growth suppression of beta-catenin-knockout colon cells, dose response, cell-based, HCT116, human colon tumor (AID 1045); format: functional;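 further: HCT116 colon tumor cells with beta catenin knocked out; cells exposed to compound for 60 hours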
[32] = growth suppression of PTEN-null colon cells, dose response, cell-based, HCT116 PTEN knockout (AID 1047); format: functional;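 further: HCT116 colon tumor cells with PTEN knocked out; cells exposed to compound for 60 hours before readout; potency for loss of cell viability measured by luminescence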
[33] = inhibitors of firefly luciferase expression or activity, dose response, H4 neuroglioma cells, luminescence (AID 1990); format: functional, cell-based
[34] = Luminescence Cell-Based Dose Response HTS to Identify Inhibitors of 5'UTR Stem-Loop Driven Prion Protein mRNA Translation in H4 Neuroglioblastoma Cells. [Related pubchem assays: 1827 (Project Summary), 1813 (Primary HTS)]; format: functional
[35] = inhibitors of SNCA 5'UTR-driven reporter translation, confirmation, H4 neuroglioma cells, luminescence (AID 1988); format: functional, cell-based

## COCCn1c(C)cc(C2=NN=C(NC3CC3)SC2)c1C
[1]
  AC50: 0.215 µM (active)
[2]
  EC50: 2.14 µM (active)
[3]
  AC50: 46.1 µM (active)
[4]
  AC50: 22.4 µM (active)
[5]
  AC50: 0.282 µM (active)
[6]
  AC50: 26.7 µM (active)
[7]
  AC50: < 0.26 µM (active)
[8]
  IC50: > 80 µM (inactive)
[9]
  AC50: < 0.26 µM (active)
[10]
  EC50: 7.61 µM (active)
[11]
  IC50: 0.22 µM (active)
[12]
  AC50: 29.2 µM (active)
[13]
  AC50: 12.1 µM (active)

## COc1cccc2sc(N(CCCN(C)C)C(=O)c3ccc(S(=O)(=O)N4CCCc5ccccc54)cc3)nc12
[14]
  IC50: 24.6 µM (active)

## CC(C)Cc1nc2oc3c(O)ncnc3c2c2c1CCCC2
[15]
  EC50: > 150 µM (inactive)
[16]
  EC50: > 160 µM (inactive)
[17]
  EC50: 0.891 µM (active)
[18]
  EC50: > 180 µM (inactive)

## CCCCNc1cc(=O)n(C)c(=O)[nH]1
[19]
  IC50: > 67.5 µM (inactive)
[20]
  IC50: > 67.5 µM (inactive)

## N=c1n(CC(=O)c2ccc([N+](=O)[O-])cc2)c2ccccc2n1Cc1ccccc1
[21]
  AC50: 4.83 µM (active)
[22]
  AC50: > 11 µM (active)
[23]
  EC50: > 99 µM (inactive)
[24]
  AC50: > 11 µM (active)
[25]
  EC50: > 99 µM (inactive)

## C#CCOCCOCCOCCNc1nc(N2CCN(C(=O)C([C@@H](C)O)n3cc([C@@H](N)CCCCN)nn3)CC2)nc(N2CCN(C(=O)[C@H](CO)n3cc([C@@H](N)C(C)C)nn3)CC2)n1 (stereo partly drawn)
[26]
  IC50: > 20 µM (inactive)
[27]
  IC50: 7.85 µM (active)
[28]
  IC50: 8.01 µM (active)

## COc1ccc(NS(=O)(=O)c2cc([N+](=O)[O-])ccc2N/N=C\c2c(C)[nH]c3ccccc23)cc1
[29]
  EC50: > 40 µM (inactive)
[30]
  IC50: > 40 µM (not active)
[31]
  EC50: 19.9 µM (active)
[32]
  EC50: 17.6 µM (active)

## O=C(O)c1ccc(N/N=C/C2=Cc3ccccc3OC2)cc1
[19]
  IC50: > 67.6 µM (inactive)
[20]
  IC50: > 67.6 µM (inactive)

## CC1CC2(C)Oc3ccccc3CC2C(C)C1CNCCCN(C)C (stereo not drawn)
[22]
  AC50: 29.8 µM (active)
[33]
  EC50: > 120 µM (not active)
[34]
  EC50: > 120 µM (not active)
[35]
  EC50: > 120 µM (not active)

— ChEMBL document CHEMBL1201862, “PubChem BioAssay data set” (2004)
